Data as given in patent EP0978561A1, “Antisense oligonucleotides for the inhibition of VEGF expression” (Hoechst Marion Roussel Deutschland GmbH, priority 1998, dated 2000).
Read-outs that look alike come from different tables or passages of the source.

Test system: human VEGF
Test: VEGF protein assay: ELISA of secreted VEGF in conditioned medium of oligonucleotide-treated cells
Assay type: cell-based
Conditions: cells treated 5 hours with oligonucleotide and Cellfectin, secreted VEGF in supernatant, 100% = Cellfectin without oligonucleotide, read-out: IC50 for VEGF secretion
Description: The cells are plated in 96-well plates at 30,000 cells/well, 150 ul medium per well (medium depends on cell type). The next day, Cellfectin (Gibco-BRL) is diluted to 400 ug/ml in water (solution A). Oligonucleotides are diluted to 40X the final desired concentration in water (solution B). Equal amounts of solutions A and B are mixed, to give the desired volume of a solution that is 200 µg/ml Cellfectin and 20X oligonucleotide, and the mixture left at room temperature for 30 minutes. After 30 minutes, 19 volumes of Optimem (Gibco-BRL) is added to give a final solution that is 10 µg/ml Cellfectin and 1X oligonucleotide (solution C). Medium is removed from the cells, the wells are washed 2X with Optimem, and 150 µl solution C added to each well. The plates are then returned to the incubator (37°C, 5% CO2). After 5 hours, the Cellfectin/oligonucleotide solution is removed and replaced with 150 µl of regular growth medium. VEGF protein and mRNA assays are performed beginning 19 hours later.
Samples (from example 4) of conditioned medium are taken from the desired wells and assayed for the presence of human VEGF using the human VEGF ELISA kit from R & D systems.The assay protocol is the one provided with the kit.
The IC50s are calculated based on a value of 100% for the amount of VEGF protein or mRNA in cells treated with Cellfectin but no oligonucleotide.

| Substance | IC50 (listed as ON54) [nM] | IC50 [nM] |
| --- | --- | --- |
| 5'-p*-(2'5'-rA*rA*rA*rA)*(teg) G*C*G C*T G A*T*A G A*C*A T*C*C*A*T*G -3' (GCGCTGATAGACATCCATG; 5'-phosphate 2'5' rA4, teg linker, all-2'-O-methyl, chemistry not fully specified) [ON 54, 2'5'(rA)4-conjugate all-2'-O-methyl] | ~230 | 230 |
| 5'-p*(2'5'-Co Co Co Co)(teg) G*C*G C*T G A*T*A G A*C*A T*C*C*A*T*G -3' (GCGCTGATAGACATCCATG; chemistry not fully specified) [ON 53, 2'5(Co)4-conjugate all-2'-O-methyl] |  | 1500 |
